The supplement of paper PMC13380429

What was measured:
Settings in all cases: 72 h
Caco-2 [1] = assay: cell viability relative to DMSO; higher = less toxic
Calu-3 [2] = assay: as above
HepG2 [3] = assay: as above
U2OS [4] = assay: as above
Vero E6 [5] = assay: as above
Caco-2 [6] = assay: relative viability EC50 (midpoint between 100% and the lowest measured viability); higher = less toxic
HepG2 [7] = assay: as above
Caco-2 [8] = assay: drug sensitivity score (DSS) for viability; higher = more toxic; extreme values may be limits of the assay
Calu-3 [9] = assay: as above
HepG2 [10] = assay: as above
U2OS [11] = assay: as above
Vero E6 [12] = assay: as above
Calu-3 [13] = assay: relative viability EC50 (midpoint between 100% and the lowest measured viability); higher = less toxic
U2OS [14] = assay: as above
Vero E6 [15] = assay: as above

Compound	cell viability (Caco-2 [1]; 1 nM)	cell viability (Caco-2 [1]; 10 nM)	cell viability (Caco-2 [1]; 100 nM)	cell viability (Caco-2 [1]; 1000 nM)	cell viability (Caco-2 [1]; 10000 nM)	cell viability (Calu-3 [2]; 1 nM)	cell viability (Calu-3 [2]; 10 nM)	cell viability (Calu-3 [2]; 100 nM)	cell viability (Calu-3 [2]; 1000 nM)	cell viability (Calu-3 [2]; 10000 nM)	cell viability (HepG2 [3]; 1 nM)	cell viability (HepG2 [3]; 10 nM)	cell viability (HepG2 [3]; 100 nM)	cell viability (HepG2 [3]; 1000 nM)	cell viability (HepG2 [3]; 10000 nM)	cell viability (U2OS [4]; 1 nM)	cell viability (U2OS [4]; 10 nM)	cell viability (U2OS [4]; 100 nM)	cell viability (U2OS [4]; 1000 nM)	cell viability (U2OS [4]; 10000 nM)	cell viability (Vero E6 [5]; 1 nM)	cell viability (Vero E6 [5]; 10 nM)	cell viability (Vero E6 [5]; 100 nM)	cell viability (Vero E6 [5]; 1000 nM)	cell viability (Vero E6 [5]; 10000 nM)	relative viability EC50 (Caco-2 [6])	relative viability EC50 (HepG2 [7])	drug sensitivity score (Caco-2 [8])	drug sensitivity score (Calu-3 [9])	drug sensitivity score (HepG2 [10])	drug sensitivity score (U2OS [11])	drug sensitivity score (Vero E6 [12])	relative viability EC50 (Calu-3 [13])	relative viability EC50 (U2OS [14])	relative viability EC50 (Vero E6 [15])
CN(C)CCCn1cc(C2=C(c3c[nH]c4ccccc34)C(=O)NC2=O)c2ccccc21	91%	90.5%	94.1%	98%	89.3%	105%	94.2%	92%	107%	68.6%	94.7%	96.2%	102%	95.2%	31%	98.8%	103%	96.5%	101%	70.8%	101%	95.2%	98.3%	96.3%	68.8%	> 10 µM	2.6 µM	0	1.1	4.5	1.2	2	–	–	–
Cc1c(N2C(=O)[C@@H]3[C@H](O)CCN3C2=O)ccc(C#N)c1Cl	95.4%	100%	89.1%	93.1%	90.3%	106%	101%	97.4%	109%	105%	97.7%	95.4%	94%	93.8%	97.1%	94.8%	99.8%	98.6%	94.4%	97.1%	–	–	–	–	–	> 10 µM	> 10 µM	0	0	0	0	–	> 10 µM	> 10 µM	–
N#Cc1c(O)c2c(-c3ccc(-c4ccccc4O)cc3)csc2[nH]c1=O	97.8%	102%	95.2%	98.8%	96.5%	94.3%	94.8%	96.7%	95.5%	104%	–	–	–	–	–	103%	108%	99.8%	106%	99.1%	105%	101%	97.3%	95.4%	99%	> 10 µM	–	0	0	–	0	0	> 10 µM	> 10 µM	> 10 µM
c1ccc(-c2n[nH]c3c2oc2ccccc23)cc1	107%	99.4%	104%	96.8%	89.7%	89.6%	103%	102%	105%	110%	104%	106%	90.1%	84%	74.5%	103%	102%	98.5%	99.6%	93.8%	91%	96.4%	91.7%	90.1%	102%	> 10 µM	–	0	0	2.9	0	0	> 10 µM	> 10 µM	> 10 µM
OC[C@H]1O[C@@H](O[C@@H]2[C@@H](CO)OC(O)(CO)[C@H]2O)[C@H](O)[C@@H](O)[C@H]1O (mixture of isomers) [lactulose]	100%	98.2%	101%	104%	106%	107%	112%	99.1%	104%	101%	–	–	–	–	–	–	–	–	–	–	94.1%	97.7%	89.1%	94.6%	110%	> 10 µM	–	0	0	–	–	0	> 10 µM	–	> 10 µM
OCCCCO [1,4-butanediol]	98.6%	112%	119%	107%	102%	89.2%	98.4%	89.4%	94%	93.7%	90.8%	97.9%	95.7%	105%	74.4%	101%	108%	96.8%	111%	97.8%	102%	102%	100%	104%	93.1%	> 10 µM	–	0	0	0.7	0	0	> 10 µM	> 10 µM	> 10 µM
C[C@@H](N)[C@@H](O)c1ccccc1 [1S,2R-phenylpropanolamine]	98.5%	107%	97.4%	102%	110%	106%	106%	98.8%	102%	99.7%	–	–	–	–	–	–	–	–	–	–	101%	101%	101%	103%	97.7%	> 10 µM	–	0	0	–	–	0	> 10 µM	–	> 10 µM
Cc1ccc(NC(=O)c2cccc(C(C)(C)C#N)c2)cc1Nc1ccc2ncn(C)c(=O)c2c1 [AZ-628]	95.8%	102%	98.2%	81.9%	63.8%	–	–	–	–	–	97.5%	102%	69.9%	22%	16.6%	98.7%	98.6%	93.2%	89.7%	43.3%	101%	102%	102%	84.2%	52.4%	–	0.148 µM	3.7	–	18.1	4.8	4.8	–	1.81 µM	–
O=C(NCCCNc1nc(Nc2cccc(NC(=O)N3CCCC3)c2)ncc1I)c1cccs1 [BX-795]	98.2%	98%	105%	92.6%	63.7%	93.4%	97.3%	102%	107%	89.2%	96.9%	90.4%	96.7%	101%	34.7%	104%	99.3%	100%	90.9%	31.2%	97.8%	98.4%	97%	101%	61.7%	–	3.26 µM	2.9	0	3.5	5.3	1.8	> 10 µM	2.1 µM	–
CCS(=O)(=O)N(Cc1cccnc1)c1cccc(-c2ccc(C#N)cc2)c1 [CBiPES]	100%	99.2%	98.1%	92.6%	76.4%	101%	96.5%	97.1%	96.8%	112%	98.5%	96.3%	93.7%	105%	56.7%	104%	97.2%	103%	98.1%	94.6%	103%	96.7%	101%	96.4%	85.9%	> 10 µM	–	1.6	0	1.9	0	0.5	> 10 µM	> 10 µM	> 10 µM
CNC1CC(N)C(O)C(OC2OC(CO)C(O)C3OC4(OC(C(N)CO)C(O)C(O)C4O)OC23)C1O (stereo unspecified) [Hygromycin B]	97.2%	105%	107%	108%	95.9%	95.7%	93.5%	92.9%	97.5%	89.8%	–	–	–	–	–	104%	97.8%	99%	103%	93.9%	95.9%	93.4%	95.4%	91.5%	104%	> 10 µM	–	0	0	–	0	0	> 10 µM	> 10 µM	> 10 µM
Cc1cc(Nc2cc(C)c(C#N)c(N[C@@H](C)CCCC(C)(C)O)n2)n[nH]1 [TC-A-2317]	103%	102%	94%	77.6%	25.3%	98%	89.4%	84.7%	77.2%	40.8%	110%	103%	93.2%	62.8%	54.3%	106%	98.2%	96.9%	68.8%	7.2%	105%	104%	96.4%	75.7%	22%	1.47 µM	–	7.2	6.7	7.5	9.4	7.8	0.799 µM	1.33 µM	1.4 µM
COc1cccc(OC)c1-c1cc(C(=O)N[C@@H](CC(C)C)C(=O)O)nn1-c1ccnc2cc(Cl)ccc12 [TC-NTR1-17]	103%	99.6%	100%	91.7%	99.9%	117%	102%	93%	104%	104%	102%	106%	97%	106%	106%	–	–	–	–	–	–	–	–	–	–	> 10 µM	> 10 µM	0	0	0	–	–	> 10 µM	–	–
Cc1c(C(=O)Nc2ccc(N3CCC(N4CCOCC4)CC3)c(C#N)c2)cnn1-c1ccc(Cl)cc1 [Y-320]	104%	93.8%	103%	87.5%	74.9%	103%	103%	90.1%	89.6%	69.9%	106%	109%	105%	77.4%	23%	–	–	–	–	–	104%	104%	106%	104%	74.6%	–	1.42 µM	2.4	2.2	7.6	–	0.8	–	–	–
C=CCNc1nc(NCC=C)nc(N2CCN(C(c3ccc(F)cc3)c3ccc(F)cc3)CC2)n1 [almitrine]	91.3%	79.4%	102%	88.2%	87.8%	111%	96.2%	96.5%	92%	98.2%	98.8%	92.6%	80.9%	77.9%	61%	102%	96.1%	99.4%	94.6%	97.9%	91.7%	107%	89.2%	95.4%	91.2%	> 10 µM	–	0.6	0	6.1	0	0.4	> 10 µM	> 10 µM	> 10 µM
COC(=O)N[C@H](C(=O)N[C@@H](Cc1ccccc1)[C@@H](O)CN(Cc1ccc(-c2ccccn2)cc1)NC(=O)[C@@H](NC(=O)OC)C(C)(C)C)C(C)(C)C [atazanavir]	90.5%	112%	92.9%	84.8%	80.1%	99.3%	99.7%	91.4%	91%	97.1%	–	–	–	–	–	111%	97.1%	102%	94%	99.1%	96.3%	102%	90.2%	99.6%	112%	> 10 µM	–	2.3	0	–	0	0	> 10 µM	> 10 µM	> 10 µM
